The term melting point denotes the temperature of the solid-liquid transition. `CC(C)n1cc(Nc2nc(-c3ccc4cn[nH]c4c3)cn3ccnc23)cn1` [Compound 5, 6-(1H-indazol-6-yl)-N-(1-isopropyl-1H-pyrazol-4-yl)imidazo[1,2-a]pyrazin-8-amine]: the melting point was more than 250 °C.

Source of the values: patent publication US10093684B2, “Substituted imidazo[1,2-a]pyrazines as Syk inhibitors” (Gilead Connecticut, Inc., priority 2008, dated 2018).
